{
  "source": "ChEMBL document CHEMBL4334536",
  "about": "“PROTAC-Mediated Degradation of KRAS Protein for Anticancer Therapeutics” (ACS Med Chem Lett, 2020)",
  "type_in_all_cases": "cell-based",
  "key": {"NCI-H2030 [G12C] [1]": {"test_system": "NCI-H2030 [G12C]", "sequence (as listed by the source, stated change not applied)": "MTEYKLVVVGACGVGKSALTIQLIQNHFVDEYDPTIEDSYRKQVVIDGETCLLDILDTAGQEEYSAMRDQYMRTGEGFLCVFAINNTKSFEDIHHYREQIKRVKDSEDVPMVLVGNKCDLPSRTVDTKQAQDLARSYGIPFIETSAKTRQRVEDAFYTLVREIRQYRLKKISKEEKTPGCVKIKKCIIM", "test": "Protac activity at E3 ubiquitin ligase/KRAS G12C mutant in human NCI-H2030 cells assessed as maximal KRAS degradation at 1 uM after 24 hrs by Western blot analysis relative to control"}, "NCI-H2030 [G12C] [2]": {"test_system": "NCI-H2030 [G12C]", "test": "Protac activity at E3 ubiquitin ligase/KRAS G12C mutant in human NCI-H2030 cells assessed as maximal KRAS degradation at 3 uM after 24 hrs by Western blot analysis relative to control"}, "NCI-H2030 [G12C] [3]": {"test_system": "NCI-H2030 [G12C]", "test": "Protac activity at E3 ubiquitin ligase/KRAS G12C mutant in human NCI-H2030 cells assessed as maximal KRAS degradation at 0.3 uM after 24 hrs by Western blot analysis relative to control"}},
  "data": [
    {"molecule": "C=CC(=O)N1CCN(c2nc(NCCC(=O)N(C)CCOCCOCCOCCOCC(=O)N[C@H](C(=O)N3C[C@H](O)C[C@H]3C(=O)N[C@@H](C)c3ccc(-c4scnc4C)cc3)C(C)(C)C)nc3c(F)c(-c4cc(O)cc5ccccc45)c(Cl)cc23)CC1", "values": [
      {"measurement": "Emax", "setting": "NCI-H2030 [G12C] [1]", "value": "> 50", "unit": "%"},
      {"measurement": "Emax", "setting": "NCI-H2030 [G12C] [2]", "value": "> 50", "unit": "%"},
      {"measurement": "Emax", "setting": "NCI-H2030 [G12C] [3]", "value": "< 25", "unit": "%"}
    ]},
    {"molecule": "CCC(=O)N1CCN(c2nc(NCCC(=O)N(C)CCOCCOCCOCCOCC(=O)N[C@H](C(=O)N3C[C@H](O)C[C@H]3C(=O)N[C@@H](C)c3ccc(-c4scnc4C)cc3)C(C)(C)C)nc3c(F)c(-c4cc(O)cc5ccccc45)c(Cl)cc23)CC1", "values": [
      {"measurement": "Emax", "setting": "NCI-H2030 [G12C] [1]", "value": "< 25", "unit": "%"},
      {"measurement": "Emax", "setting": "NCI-H2030 [G12C] [2]", "value": "< 25", "unit": "%"},
      {"measurement": "Emax", "setting": "NCI-H2030 [G12C] [3]", "value": "< 25", "unit": "%"}
    ]},
    {"molecule": "C=CC(=O)N1CCN(c2nc(NCCC(=O)N(C)CCOCCOCCOCCNc3cccc4c3C(=O)N(C3CCC(=O)NC3=O)C4=O)nc3c(F)c(-c4cc(O)cc5ccccc45)c(Cl)cc23)CC1", "note": "(stereo not drawn)", "values": [
      {"measurement": "Emax", "setting": "NCI-H2030 [G12C] [1]", "value": "25 to 50", "unit": "%"},
      {"measurement": "Emax", "setting": "NCI-H2030 [G12C] [2]", "value": "25 to 50", "unit": "%"},
      {"measurement": "Emax", "setting": "NCI-H2030 [G12C] [3]", "value": "< 25", "unit": "%"}
    ]},
    {"molecule": "C=CC(=O)N1CCN(c2nc(NCCC(=O)N(C)CCOCCOCCOCC(=O)N[C@H](C(=O)N3C[C@H](O)C[C@H]3C(=O)N[C@@H](C)c3ccc(-c4scnc4C)cc3)C(C)(C)C)nc3c(F)c(-c4cc(O)cc5ccccc45)c(Cl)cc23)CC1", "values": [
      {"measurement": "Emax", "setting": "NCI-H2030 [G12C] [1]", "value": "25 to 50", "unit": "%"},
      {"measurement": "Emax", "setting": "NCI-H2030 [G12C] [2]", "value": "25 to 50", "unit": "%"},
      {"measurement": "Emax", "setting": "NCI-H2030 [G12C] [3]", "value": "< 25", "unit": "%"}
    ]},
    {"molecule": "CCC(=O)N1CCN(c2nc(NCCC(=O)N(C)CCOCCOCCOCCOCCOc3ccc4c(c3)CN(C3CCC(=O)NC3=O)C4=O)nc3c(F)c(-c4cc(O)cc5ccccc45)c(Cl)cc23)CC1", "note": "(stereo not drawn)", "values": [
      {"measurement": "Emax", "setting": "NCI-H2030 [G12C] [1]", "value": "25 to 50", "unit": "%"},
      {"measurement": "Emax", "setting": "NCI-H2030 [G12C] [2]", "value": "25 to 50", "unit": "%"},
      {"measurement": "Emax", "setting": "NCI-H2030 [G12C] [3]", "value": "< 25", "unit": "%"}
    ]},
    {"molecule": "C=CC(=O)N1CCN(c2nc(NCCC(=O)N(C)CCOCCOCCOCCOCCOCC(=O)N[C@H](C(=O)N3C[C@H](O)C[C@H]3C(=O)N[C@@H](C)c3ccc(-c4scnc4C)cc3)C(C)(C)C)nc3c(F)c(-c4cc(O)cc5ccccc45)c(Cl)cc23)CC1", "values": [
      {"measurement": "Emax", "setting": "NCI-H2030 [G12C] [1]", "value": "> 50", "unit": "%"},
      {"measurement": "Emax", "setting": "NCI-H2030 [G12C] [2]", "value": "> 50", "unit": "%"},
      {"measurement": "Emax", "setting": "NCI-H2030 [G12C] [3]", "value": "< 25", "unit": "%"}
    ]}
  ]
}
